The term EC50 denotes the concentration giving half of the maximal effect.

One test deals with HBV rcDNA. Kind of test: HepDE19 assay with bDNA quantitation of HBV rcDNA. The test is classed as cell-based, hepatitis B virus. The settings on record: HepDE19 assay, inhibition of formation of rcDNA; read-out: DE-19bDNA EC50. The gist of the method: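 HepDE19 cells (HepG2-derived, Tet-regulated HBV replication) were deprived of tetracycline and then exposed to compounds for 7 days at 37 °C in 0.5% DMSO, 8-point titration from 25 μM. rcDNA was quantified by bDNA and EC50/EC90 came from 4-parameter fits. CC50 was measured by CellTiter-Glo ATP content on replicate plates after 4 days.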
For `CC(c1c[nH]c(=O)c2ccccc12)N(C[C@@H]1CCCO1)C(=O)Nc1ccc(F)c(Cl)c1` (single isomer, unassigned) [Compound 160], the EC50 came out at 23000 nM.
For `CC(c1c[nH]c(=O)c2ccccc12)N(C[C@@H]1CCCO1)C(=O)Nc1ccc(F)c(Cl)c1` (single isomer, unassigned) [Compound 161], the EC50 was determined as 150 nM.
With `CC(c1c[nH]c(=O)c2ccccc12)N(CCNCC(F)(F)F)C(=O)Nc1ccc(F)c(Cl)c1` (single isomer, unassigned) [Compound 162, 3-(3-Chloro-4-fluorophenyl)-1-(1-(1-oxo-1,2-dihydroisoquinolin-4-yl)ethyl)-1-(2-((2,2,2-trifluoroethyl)amino)ethyl)urea], the EC50 turned out to be 580 nM.
Take `CC(c1c[nH]c(=O)c2ccccc12)N(CCNCC(F)(F)F)C(=O)Nc1ccc(F)c(Cl)c1` (single isomer, unassigned) [Compound 163, 3-(3-Chloro-4-fluorophenyl)-1-(1-(1-oxo-1,2-dihydroisoquinolin-4-yl)ethyl)-1-(2-((2,2,2-trifluoroethyl)amino)ethyl)urea]: the EC50 was determined as 5300 nM.
On the same count and under the same terms, to `CC(c1c[nH]c(=O)c2c(Cl)cccc12)N(C)C(=O)Nc1ccc(F)c(Cl)c1` (single isomer, unassigned) [Compound 167, 1-(1-(8-Chloro-1-oxo-1,2-dihydroisoquinolin-4-yl)ethyl)-3-(3-chloro-4-fluorophenyl)-1-methylurea] belongs 2400 nM.
Still for that read-out and setting: to `CC(c1c[nH]c(=O)c2c(Cl)cccc12)N(C)C(=O)Nc1ccc(F)c(Cl)c1` (single isomer, unassigned) [Compound 168, 1-(1-(8-Chloro-1-oxo-1,2-dihydroisoquinolin-4-yl)ethyl)-3-(3-chloro-4-fluorophenyl)-1-methylurea] belongs 70 nM; to `CC(c1c[nH]c(=O)c2ccc(F)cc12)N(C)C(=O)Nc1ccc(F)c(Cl)c1` (single isomer, unassigned) [Compound 169, 3-(3-Chloro-4-fluorophenyl)-1-(1-(6-fluoro-1-oxo-1,2-dihydroisoquinolin-4-yl)ethyl)-1-methylurea], 2100 nM.
Same read-out and setting: to `CC(c1c[nH]c(=O)c2ccc(F)cc12)N(C)C(=O)Nc1ccc(F)c(Cl)c1` (single isomer, unassigned) [Compound 170, 3-(3-Chloro-4-fluorophenyl)-1-(1-(6-fluoro-1-oxo-1,2-dihydroisoquinolin-4-yl)ethyl)-1-methylurea] belongs 30 nM; to `CC(c1c[nH]c(=O)c2ccc(Cl)cc12)N(C)C(=O)Nc1ccc(F)c(Cl)c1` (single isomer, unassigned) [Compound 171, 1-(1-(6-Chloro-1-oxo-1,2-dihydroisoquinolin-4-yl)ethyl)-3-(3-chloro-4-fluorophenyl)-1-methylurea], 5400 nM.
For `CC(c1c[nH]c(=O)c2ccc(Cl)cc12)N(C)C(=O)Nc1ccc(F)c(Cl)c1` (single isomer, unassigned) [Compound 172, 1-(1-(6-Chloro-1-oxo-1,2-dihydroisoquinolin-4-yl)ethyl)-3-(3-chloro-4-fluorophenyl)-1-methylurea], the half-maximal effective concentration (EC50) is 120 nM.
Regarding `COc1ccc2c(C(C)N(C)C(=O)Nc3ccc(F)c(Cl)c3)c[nH]c(=O)c2c1` (single isomer, unassigned) [Compound 177, 3-(3-Chloro-4-fluorophenyl)-1-(1-(7-methoxy-1-oxo-1,2-dihydroisoquinolin-4-yl)ethyl)-1-methylurea], the concentration for a half-maximal effect (EC50) was found to be 2200 nM.
The same measure, in the same setting: to `COc1ccc2c(C(C)N(C)C(=O)Nc3ccc(F)c(Cl)c3)c[nH]c(=O)c2c1` (single isomer, unassigned) [Compound 178, 3-(3-Chloro-4-fluorophenyl)-1-(1-(7-methoxy-1-oxo-1,2-dihydroisoquinolin-4-yl)ethyl)-1-methylurea] belongs 170 nM; to `COc1ccc2c(=O)[nH]cc(C(C)N(C)C(=O)Nc3ccc(F)c(Cl)c3)c2c1` (single isomer, unassigned) [Compound 179, 3-(3-Chloro-4-fluorophenyl)-1-(1-(6-methoxy-1-oxo-1,2-dihydroisoquinolin-4-yl)ethyl)-1-methylurea], 7300 nM; to `COc1ccc2c(=O)[nH]cc(C(C)N(C)C(=O)Nc3ccc(F)c(Cl)c3)c2c1` (single isomer, unassigned) [Compound 180, 3-(3-Chloro-4-fluorophenyl)-1-(1-(6-methoxy-1-oxo-1,2-dihydroisoquinolin-4-yl)ethyl)-1-methylurea], 1400 nM.
On the same count and under the same terms, to `CC(c1cn(C)c(=O)c2ccccc12)N(C)C(=O)Nc1ccc(F)c(Cl)c1` (single isomer, unassigned) [Compound 181, 3-(3-Chloro-4-fluorophenyl)-1-methyl-1-(1-(2-methyl-1-oxo-1,2-dihydroisoquinolin-4-yl)ethyl)urea] belongs 1800 nM; to `CC(c1cn(C)c(=O)c2ccccc12)N(C)C(=O)Nc1ccc(F)c(Cl)c1` (single isomer, unassigned) [Compound 182, 3-(3-Chloro-4-fluorophenyl)-1-methyl-1-(1-(2-methyl-1-oxo-1,2-dihydroisoquinolin-4-yl)ethyl)urea], 30 nM; to `CCn1cc(C(C)N(C)C(=O)Nc2ccc(F)c(Cl)c2)c2ccccc2c1=O` (single isomer, unassigned) [Compound 183, 3-(3-Chloro-4-fluorophenyl)-1-(1-(2-ethyl-1-oxo-1,2-dihydroisoquinolin-4-yl)ethyl)-1-methylurea], 18000 nM.
Take `CCn1cc(C(C)N(C)C(=O)Nc2ccc(F)c(Cl)c2)c2ccccc2c1=O` (single isomer, unassigned) [Compound 184, 3-(3-Chloro-4-fluorophenyl)-1-(1-(2-ethyl-1-oxo-1,2-dihydroisoquinolin-4-yl)ethyl)-1-methylurea]: the EC50 is 90 nM.
Still for that read-out and setting: to `CCCn1cc(C(C)N(C)C(=O)Nc2ccc(F)c(Cl)c2)c2ccccc2c1=O` (single isomer, unassigned) [Compound 185, 3-(3-Chloro-4-fluorophenyl)-1-methyl-1-(1-(1-oxo-2-propyl-1,2-dihydroisoquinolin-4-yl)ethyl)urea] belongs 340 nM; to `CCCn1cc(C(C)N(C)C(=O)Nc2ccc(F)c(Cl)c2)c2ccccc2c1=O` (single isomer, unassigned) [Compound 186, 3-(3-Chloro-4-fluorophenyl)-1-methyl-1-(1-(1-oxo-2-propyl-1,2-dihydroisoquinolin-4-yl)ethyl)urea], 8400 nM.
On the same count and under the same terms, to `CC(c1cn(C(C)C)c(=O)c2ccccc12)N(C)C(=O)Nc1ccc(F)c(Cl)c1` (single isomer, unassigned) [Compound 187, 3-(3-Chloro-4-fluorophenyl)-1-(1-(2-isopropyl-1-oxo-1,2-dihydroisoquinolin-4-yl)ethyl)-1-methylurea] belongs 140 nM; to `CC(c1cn(C(C)C)c(=O)c2ccccc12)N(C)C(=O)Nc1ccc(F)c(Cl)c1` (single isomer, unassigned) [Compound 188, 3-(3-Chloro-4-fluorophenyl)-1-(1-(2-isopropyl-1-oxo-1,2-dihydroisoquinolin-4-yl)ethyl)-1-methylurea], 1800 nM.
Still for that read-out and setting: to `CC(c1cn(C2CC2)c(=O)c2ccccc12)N(C)C(=O)Nc1ccc(F)c(Cl)c1` (single isomer, unassigned) [Compound 189, 3-(3-Chloro-4-fluorophenyl)-1-(1-(2-cyclopropyl-1-oxo-1,2-dihydroisoquinolin-4-yl)ethyl)-1-methylurea] belongs 2400 nM.
Regarding `CC(c1cn(C2CC2)c(=O)c2ccccc12)N(C)C(=O)Nc1ccc(F)c(Cl)c1` (single isomer, unassigned) [Compound 190, 3-(3-Chloro-4-fluorophenyl)-1-(1-(2-cyclopropyl-1-oxo-1,2-dihydroisoquinolin-4-yl)ethyl)-1-methylurea], the half-maximal effective concentration (EC50) is 170 nM.
The same measure, in the same setting: to `CC(c1c[nH]c(=O)c2ccccc12)N(CC1CCCC1)C(=O)Nc1ccc(F)c(Cl)c1` (single isomer, unassigned) [Compound 192, 3-(3-Chloro-4-fluorophenyl)-1-(cyclopentylmethyl)-1-(1-(1-oxo-1,2-dihydroisoquinolin-4-yl)ethyl)urea] belongs 420 nM; to `CC(c1c[nH]c(=O)c2ccccc12)N(CC1CCCC1)C(=O)Nc1ccc(F)c(Cl)c1` (single isomer, unassigned) [Compound 193, 3-(3-Chloro-4-fluorophenyl)-1-(cyclopentylmethyl)-1-(1-(1-oxo-1,2-dihydroisoquinolin-4-yl)ethyl)urea], 10 nM; to `CC(c1c[nH]c(=O)c2ccccc12)N(CC1CCCCC1)C(=O)Nc1ccc(F)c(Cl)c1` (single isomer, unassigned) [Compound 194, 3-(3-Chloro-4-fluorophenyl)-1-(cyclohexylmethyl)-1-(1-(1-oxo-1,2-dihydroisoquinolin-4-yl)ethyl)urea], 950 nM.
The same measure, in the same setting: to `CC(c1c[nH]c(=O)c2ccccc12)N(CC1CCCCC1)C(=O)Nc1ccc(F)c(Cl)c1` (single isomer, unassigned) [Compound 195, 3-(3-Chloro-4-fluorophenyl)-1-(cyclohexylmethyl)-1-(1-(1-oxo-1,2-dihydroisoquinolin-4-yl)ethyl)urea] belongs 30 nM.

Still in this test, the particulars now being: Hepatitis B virus, HepDE19, HepDE19 assay, inhibition of formation of rcDNA; read-out: DE-19bDNA EC50.
In the case of `CC(c1c[nH]c(=O)c2ccccc12)N(CCCN)C(=O)Nc1ccc(F)c(Cl)c1` (single isomer, unassigned) [Compound 164, 1-(3-Aminopropyl)-3-(3-chloro-4-fluorophenyl)-1-(1-(1-oxo-1,2-dihydroisoquinolin-4-yl)ethyl)urea], the 50% effective concentration (EC50) turned out to be 12000 nM.
Same read-out and setting: to `COCCn1cc(C(C)N(C)C(=O)Nc2ccc(F)c(Cl)c2)c2ccccc2c1=O` (single isomer, unassigned) [Compound 191, 3-(3-Chloro-4-fluorophenyl)-1-(1-(2-(2-methoxyethyl)-1-oxo-1,2-dihydroisoquinolin-4-yl)ethyl)-1-methylurea] belongs 360 nM.

The record behind these values is patent US20230045421A1 (priority 2018, published 2023).
